Columns and labels:
[1] = biological target: T1, human recombinant 15-PGDH (Homo sapiens, UniProt P15428); experiment: Recombinant 15-PGDH enzymatic inhibition assay (PGDH-Lumi, NADH signal); format: biochemical; conditions: recombinant 15-PGDH; 15 min pre-incubation, 60 min reaction with PGE2 and NAD+, NADH signal
T1 sequence (P15428 1-266): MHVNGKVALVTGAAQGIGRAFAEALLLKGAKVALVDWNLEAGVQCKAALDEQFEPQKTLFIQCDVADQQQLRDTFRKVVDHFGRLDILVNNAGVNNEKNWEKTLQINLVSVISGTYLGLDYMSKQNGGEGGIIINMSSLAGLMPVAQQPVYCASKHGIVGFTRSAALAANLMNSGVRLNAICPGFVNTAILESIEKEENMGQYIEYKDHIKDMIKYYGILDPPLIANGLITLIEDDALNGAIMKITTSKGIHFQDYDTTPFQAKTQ
Summary of the method: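 Recombinant 15-PGDH pre-incubated 15 min at room temperature with compound (22 concentrations, 2-fold dilutions) in 50 mM Tris pH 7.5, 0.01% Tween-20, […].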

15-PGDH in A549 cells = biological target: T2, 15-PGDH in A549 cells (Homo sapiens, UniProt P15428); experiment: A549 cellular 15-PGDH assay (PGE2 accumulation, HTRF); format: cell-based; conditions: interleukin-stimulated, inhibitor 24 hrs, PGE2 by competitive HTRF, read-out: A549 Cell Assay IC50
T2 construct: endogenous in cells; host or cells: A549
T2 sequence (P15428 1-266): T1 sequence (P15428 1-266)
From the text: This assay was used for the quantification of IL-13 induced Native Prostaglandin E2 (PGE2) produced by A549 cells (epithelial cells from lung carcinoma) in cell culture supernatants. […] PGE2 was detected in a competitive HTRF assay by using anti PGE2 antibody labeled with Europium cryptate, and PGE2 labeled with […]. The PGE2 present in the sample competes with the binding between the two HTRF detection solutions (reagents) and thereby prevents FRET from occurring. The specific signal is inversely proportional to the PGE2 concentration. From this binding data, IC50 values were calculated.

| Compound | IC50 [1] [pM] | IC50 (15-PGDH in A549 cells) [pM] |
| --- | --- | --- |
| Cc1cn2ccc(-c3ccc4cc([C@@H](O)C5CC(F)(F)C5)sc4n3)cc2n1 (single isomer, unassigned) [Compound B55S] | 2640 | 11800 |
| CC(C)n1cc2cc(-c3ccc4cc([C@H](O)C5CC(F)(F)C5)sc4n3)ccc2n1 (single isomer, unassigned) [Compound B56R] | 603 | 2470 |
| O[C@@H](c1cc2ccc(-c3cncnc3)nc2s1)C1CC(F)(F)C1 (single isomer, unassigned) [Compound B57R] | 320 | 657 |
| Cn1cc2cc(-c3ccc4cc([C@H](O)C5CCCC5)sc4c3)cnc2n1 (single isomer, unassigned) [Compound B58R] | 240 | 1410 |
| COCC[C@@H](O)c1cc2ccc(-c3cnc4nn(C)cc4c3)cc2s1 (single isomer, unassigned) [Compound B59R] | 4750 | 7790 |
| Cn1cc2cc(-c3ccc4cc([C@H](O)CCC(F)(F)F)sc4c3)cnc2n1 (single isomer, unassigned) [Compound B60R] | 1170 | 3380 |
| CC(C)n1cc2cc(-c3ccc4cc([C@H](O)C5CC(F)(F)C5)sc4n3)cnc2n1 (single isomer, unassigned) [Compound B64R] | 325 | 311 |
| CC(C)n1cc2cc(-c3ccc4cc([C@@H](O)C5CC(F)(F)C5)sc4n3)cnc2n1 (single isomer, unassigned) [Compound B64S] | 597 | 483 |
| CC(C)n1ncc2cc(-c3ccc4cc([C@H](O)C5CC(F)(F)C5)sc4n3)cnc21 (single isomer, unassigned) [Compound B65R] | 381 | 263 |
| [2H][C@](O)(c1cc2ccc(-c3cnc4nn(C)cc4c3)nc2s1)C1CCOCC1 (single isomer, unassigned) [Compound B66R] | 396 | 303 |
| Cn1cc2cc(-c3ccc4nc([C@H](O)C5CC(F)(F)C5)sc4n3)cnc2n1 (single isomer, unassigned) [Compound B72R] | 216 | 47.9 |
| Cn1cc2cc(-c3ccc4nc([C@@H](O)C5CC(F)(F)C5)sc4n3)cnc2n1 (single isomer, unassigned) [Compound B72S] | 9580 | 5270 |
| Cn1cc2cc(-c3ccc4sc([C@H](O)C5CC(F)(F)C5)cc4n3)cnc2n1 (single isomer, unassigned) [Compound B73R] | 412 | 61 |
| Cn1cc2cc(-c3ccc4sc([C@@H](O)C5CC(F)(F)C5)cc4n3)cnc2n1 (single isomer, unassigned) [Compound B73S] | 791 | 863 |
| Cn1cc2cc(-c3ccc4sc([C@H](O)C5CC(F)(F)C5)nc4n3)cnc2n1 (single isomer, unassigned) [Compound B74R] | 4760 | 494 |
| Cn1cc2cc(-c3ccc4sc([C@@H](O)C5CC(F)(F)C5)nc4n3)cnc2n1 (single isomer, unassigned) [Compound B74S] | 24100 | 4480 |
| Cn1cc2cc(-c3ncc4cc([C@H](O)C5CC(F)(F)C5)sc4n3)cnc2n1 (single isomer, unassigned) [Compound B75R] | 382 | 16.2 |
| Cn1cc2cc(-c3ncc4cc([C@@H](O)C5CC(F)(F)C5)sc4n3)cnc2n1 (single isomer, unassigned) [Compound B75S] | 25400 | 12500 |
| Cn1cc2cc(-c3cnc4sc([C@H](O)C5CC(F)(F)C5)cc4c3)cnc2n1 (single isomer, unassigned) [Compound B77R] | 4930 | 1290 |
| Cn1cc2cc(-c3cnc4sc([C@@H](O)C5CC(F)(F)C5)cc4c3)cnc2n1 (single isomer, unassigned) [Compound B77S] | 154000 | 11400 |
| Cn1cc2cc(-c3cnc4cc([C@H](O)C5CC(F)(F)C5)sc4c3)cnc2n1 (single isomer, unassigned) [Compound B78R] | 17000 | 2490 |
| Cn1cc2cc(-c3cnc4cc([C@@H](O)C5CC(F)(F)C5)sc4c3)cnc2n1 (single isomer, unassigned) [Compound B78S] | 896000 | 57100 |
| [2H][C@](O)(c1cc2ccc(-c3cnc4nn(C)cc4c3)nc2s1)C1CC(F)(F)C1 (single isomer, unassigned) [Compound B79R] | 399 | 9.4 |

| Compound | IC50 [1] [pM] | IC50 (15-PGDH in A549 cells) [pM] |
| --- | --- | --- |
| [2H][C@@](O)(c1cc2ccc(-c3cnc4nn(C)cc4c3)nc2s1)C1CC(F)(F)C1 (single isomer, unassigned) [Compound B79S] | 706 | 370 |
| Cn1cc2cc(-c3ccc4cc([C@H](CO)C5CC(F)(F)C5)sc4n3)cnc2n1 (single isomer, unassigned) [Compound B80S] | 1160 | 339 |
| Cc1c([C@H](O)C2CC(F)(F)C2)sc2nc(-c3cnc4nn(C)cc4c3)ccc12 (single isomer, unassigned) [Compound B83R] | 296 | 10.3 |
| Cc1c([C@@H](O)C2CC(F)(F)C2)sc2nc(-c3cnc4nn(C)cc4c3)ccc12 (single isomer, unassigned) [Compound B83S] | 5130 | 1110 |
| Cn1cc2cc(-c3ccc4cc([C@H](O)[C@H]5C[C@@H](C(F)(F)F)C5)sc4n3)cnc2n1 (single isomer, unassigned) [Compound B84RC] | 470 | 492 |
| Cn1cc2cc(-c3ccc4cc([C@H](O)[C@H]5C[C@H](C(F)(F)F)C5)sc4n3)cnc2n1 (single isomer, unassigned) [Compound B84RT] | 365 | 515 |
| Cn1cc2cc(-c3ccc4cc([C@@H](O)[C@H]5C[C@@H](C(F)(F)F)C5)sc4n3)cnc2n1 (single isomer, unassigned) [Compound B84SC] | 1530 | 1450 |
| Cn1cc2cc(-c3ccc4cc([C@@H](O)[C@H]5C[C@H](C(F)(F)F)C5)sc4n3)cnc2n1 (single isomer, unassigned) [Compound B84ST] | 1210 | 642 |
| Cn1cc2cc(-c3ccc4cc([C@H](O)[C@H]5CC5(F)F)sc4n3)cnc2n1 (single isomer, unassigned) [Compound B85RR] | 470 | 704 |
| Cn1cc2cc(-c3ccc4cc([C@H](O)[C@@H]5CC5(F)F)sc4n3)cnc2n1 (single isomer, unassigned) [Compound B85RS] | 379 | 517 |
| Cn1cc2cc(-c3ccc4cc([C@@H](O)[C@H]5CC5(F)F)sc4n3)cnc2n1 (single isomer, unassigned) [Compound B85SR] | 1220 | 1500 |
| Cn1cc2cc(-c3ccc4cc([C@@H](O)[C@@H]5CC5(F)F)sc4n3)cnc2n1 (single isomer, unassigned) [Compound B85SS] | 3320 | 2830 |
| Cn1cc2cc(-c3ccc4cc([C@H](O)C5(C)CC(F)(F)C5)sc4n3)cnc2n1 (single isomer, unassigned) [Compound B86R] | 504 | 499 |
| Cn1cc2cc(-c3ccc4cc([C@@H](O)C5(C)CC(F)(F)C5)sc4n3)cnc2n1 (single isomer, unassigned) [Compound B86S] | 286000 | 1610 |
| Cn1cc2cc(-c3ccc4cc([C@H](O)C56CC(C5)C6)sc4n3)cnc2n1 (single isomer, unassigned) [Compound B87R] | 494 | 667 |
| Cn1cc2cc(-c3ccc4cc([C@@H](O)C56CC(C5)C6)sc4n3)cnc2n1 (single isomer, unassigned) [Compound B87S] | 28800 | 572 |
| CO[C@H]1C[C@@H]([C@@H](O)c2cc3ccc(-c4cnc5nn(C)cc5c4)nc3s2)C1 (single isomer, unassigned) [Compound B88RC] | 505 | 438 |
| CO[C@H]1C[C@H]([C@@H](O)c2cc3ccc(-c4cnc5nn(C)cc5c4)nc3s2)C1 (single isomer, unassigned) [Compound B88RT] | 524 | 511 |
| CO[C@H]1C[C@@H]([C@H](O)c2cc3ccc(-c4cnc5nn(C)cc5c4)nc3s2)C1 (single isomer, unassigned) [Compound B88SC] | 10100 | 522 |
| CO[C@H]1C[C@H]([C@H](O)c2cc3ccc(-c4cnc5nn(C)cc5c4)nc3s2)C1 (single isomer, unassigned) [Compound B88ST] | 1120 | 504 |
| Cc1c([C@H](O)C2CCOCC2)sc2nc(-c3cnc4c(c3)nnn4C)ccc12 (single isomer, unassigned) [Compound B89R] | 1770 | 4820 |
| Cc1c([C@@H](O)C2CCOCC2)sc2nc(-c3cnc4c(c3)nnn4C)ccc12 (single isomer, unassigned) [Compound B89S] | 922000 | 375000 |

From US20240409557A1, “5,6-FUSED AND 6,6-FUSED BICYCLIC ALCOHOLS AND ETHERS AND COMPOSITIONS FOR USE AS 15-PROSTAGLANDIN DEHYDROGENASE MODULATORS” (AMGEN INC., priority 2023, published 2024)
